Patent publication US20250101436A1, “APTAMERS AND SMALL MOLECULE LIGANDS” (MeiraGTx UK II Limited, priority 2021, published 2025)

tested on: luciferase gene expression in HEK 293 cells in response to Comp. 004; assay: Screen of riboswitch constructs with 12C6-1 variant aptamers (libraries N1-N5) against Comp. 004, luciferase in HEK 293 cells; assay type: cell-based, human; settings: library N2 variant aptamers (J2-3, P3-J3-3a, J3a-2 randomized) of 12C6-1 in riboswitch constructs; in response to Comp. 004; HEK 293 cells
Text: Cloning of riboswitch constructs containing 12C6-1 variant aptamer sequences: 12C6-1 aptamer sequence was used as template, and nucleobases were randomized at certain position in the sequence. Aptamers incorporating random mutagenesis were synthesized by Integrated DNA Technologies, Inc. Golden Gate cloning strategy (New England Biolabs, NEB) was used to clone the synthesized aptamer sequences into intron-exon-intron cassette to replace the 12C6-1 aptamer in the Luci-12C6-1 riboswitch construct, generating riboswitch constructs containing variant aptamer sequences.
To further improve the riboswitch activity in responding to Comp. 004 and related compounds, the aptamer sequence 12C6-1 was subject to mutagenesis to generate aptamer variants, and the riboswitches containing the variant aptamers were screened against Comp. 004 for the ones that have improved dynamic range of induced gene expression (the fold induction), in comparison with the fold induction by parental riboswitch construct Luci-12C6-1. […] These loop or junction region alone or together with stem region in proximity were chosen for random mutagenesis to generate riboswitches with re-engineered aptamer sequences with improved activity.
Five aptamer libraries N1, N2, N3, N4 and N5 were generated by randomizing nucleotides at positions in J2-4, J2-3/J3-3a/J3a-2/P3, L3a, J4-5/J5-4/P4 and L5 regions of the parent 12C6-1 sequence, respectively (see FIGS. 3a and 3b). Single bacterial colonies were picked and plasmids containing variant riboswitch constructs were screened in HEK 293 cells for improved gene regulation activity in response to 25 µM Comp. 004 as compared to parent riboswitch construct Luci-12C6-1.

| Substance | Fold (induction of luciferase gene expression) |
| --- | --- |
| N2_2H6 (CTGGGGAGTCCTTCATGC; chemistry not given here) | 1.0 fold |
| N2_2H7 (CTGGGGAGTCCTTCATGC; chemistry not given here) | 0.8 fold |
| N2_2H8 (CTGGGGAGTCCTTCATGC; chemistry not given here) | 1.4 fold |
| N2_2H9 (CTGGGGAGTCCTTCATGC; chemistry not given here) | 0.9 fold |
| N2_2H10 (CTGGGGAGTCCTTCATGC; chemistry not given here) | 1.0 fold |
| N2_2H11 (CTGGGGAGTCCTTCATGC; chemistry not given here) | 1.2 fold |

same assay, conditions: library N5 variant aptamers (L5, X16-X21 randomized) of 12C6-1 in riboswitch constructs; in response to Comp. 004 treatment; HEK 293 cells

| Substance | Fold (induction of luciferase gene expression) |
| --- | --- |
| N5_1A1 (CTGGGGAGTCCT; chemistry not given here) | 670.2 fold |
| N5_1A2 (CTGGGGAGTCCT; chemistry not given here) | 672.2 fold |
| N5_1A3 (CTGGGGAGTCCT; chemistry not given here) | 228.1 fold |
| N5_1A5 (CTGGGGAGTCCT; chemistry not given here) | 291.5 fold |
| N5_1A6 (CTGGGGAGTCCT; chemistry not given here) | 638.8 fold |
| N5_1A7 (CTGGGGAGTCCT; chemistry not given here) | 659.9 fold |
| N5_1A8 (CTGGGGAGTCCT; chemistry not given here) | 589.4 fold |
| N5_1A9 (CTGGGGAGTCCT; chemistry not given here) | 804.7 fold |
| N5_1A10 (CTGGGGAGTCCT; chemistry not given here) | 674.4 fold |
| N5_1A11 (CTGGGGAGTCCT; chemistry not given here) | 793.5 fold |
| N5_1B2 (CTGGGGAGTCCT; chemistry not given here) | 747.7 fold |
| N5_1B3 (CTGGGGAGTCCT; chemistry not given here) | 792.0 fold |
| N5_1B5 (CTGGGGAGTCCT; chemistry not given here) | 780.8 fold |
| N5_1B6 (CTGGGGAGTCCT; chemistry not given here) | 1381.8 fold |
| N5_1B7 (CTGGGGAGTCCT; chemistry not given here) | 662.1 fold |
| N5_1B8 (CTGGGGAGTCCT; chemistry not given here) | 645.1 fold |
| N5_1B9 (CTGGGGAGTCCT; chemistry not given here) | 941.5 fold |
| N5_1B10 (CTGGGGAGTCCT; chemistry not given here) | 1013.6 fold |
| N5_1B11 (CTGGGGAGTCCT; chemistry not given here) | 477.1 fold |
| N5_1C2 (CTGGGGAGTCCT; chemistry not given here) | 687.2 fold |
| N5_1C3 (CTGGGGAGTCCT; chemistry not given here) | 664.1 fold |
| N5_1C4 (CTGGGGAGTCCT; chemistry not given here) | 665.0 fold |
| N5_1C5 (CTGGGGAGTCCT; chemistry not given here) | 966.1 fold |
| N5_1C7 (CTGGGGAGTCCT; chemistry not given here) | 485.7 fold |
